# Source: US11912686B2 (Gilead Sciences, Inc., priority 2020, dated 2024)
# Molecular target: human LPAR1 (Homo sapiens (Human), UniProt Q92633)
# Assay: LPAR1 intracellular calcium mobilization assay (antagonist mode, FLIPR)
# Assay type: cell-based
# Details: CHO-K1 EDG2 cells expressing human LPAR1, LPA 18:2 at EC80 (100 nM), test compound 0.5 nM to 10 μM
# human LPAR1, sequence (Q92633 whole entry): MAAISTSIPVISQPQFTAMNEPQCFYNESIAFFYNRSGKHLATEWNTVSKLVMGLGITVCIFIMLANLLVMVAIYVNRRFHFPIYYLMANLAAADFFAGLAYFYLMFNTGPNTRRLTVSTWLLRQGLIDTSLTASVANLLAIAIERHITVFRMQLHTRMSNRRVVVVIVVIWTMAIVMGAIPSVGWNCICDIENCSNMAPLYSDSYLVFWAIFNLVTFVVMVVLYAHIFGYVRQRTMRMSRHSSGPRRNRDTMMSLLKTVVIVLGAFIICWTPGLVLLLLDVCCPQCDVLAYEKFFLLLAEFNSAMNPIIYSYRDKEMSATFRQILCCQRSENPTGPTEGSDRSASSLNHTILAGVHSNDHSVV
row,SMILES,EC50
1,"C[C@@H](OC(=O)Nc1c(-c2ccc(NC(=O)c3ccnc(F)c3F)cn2)nnn1C)c1cccnc1F [Compound 294, (R)-1-(2-fluoropyridin-3-yl)ethyl (4-(5-(2,3-difluoroisonicotinamido)pyridin-2-yl)-1-methyl-1H-1,2,3-triazol-5-yl)carbamate]",238 nM
2,"C[C@@H](OC(=O)Nc1c(-c2ccc(NC(=O)c3ccc(C(F)F)nc3)cn2)nnn1C)c1cccnc1F [Compound 295, (R)-1-(2-fluoropyridin-3-yl)ethyl (4-(5-(6-(difluoromethyl)nicotinamido)pyridin-2-yl)-1-methyl-1H-1,2,3-triazol-5-yl)carbamate]",391 nM
3,"C[C@@H](OC(=O)Nc1c(-c2ccc(NC(=O)c3ccc(C(F)(F)F)nc3)cn2)nnn1C)c1cccnc1F [Compound 296, (R)-1-(2-fluoropyridin-3-yl)ethyl (1-methyl-4-(5-(6-(trifluoromethyl)nicotinamido)pyridin-2-yl)-1H-1,2,3-triazol-5-yl)carbamate]",46.9 nM
4,"C[C@@H](OC(=O)Nc1c(-c2ccc(NC(=O)C3(C#N)CNC3)cn2)nnn1C)c1cc(F)cnc1F [Compound 297, (R)-1-(2,5-difluoropyridin-3-yl)ethyl (4-(5-(3-cyanoazetidine-3-carboxamido)pyridin-2-yl)-1-methyl-1H-1,2,3-triazol-5-yl)carbamate]",354 nM
5,"C[C@@H](OC(=O)Nc1c(-c2ccc(NC(=O)C3(C(F)F)CNC3)cn2)nnn1C)c1cc(F)cnc1F [Compound 298, (R)-1-(2,5-difluoropyridin-3-yl)ethyl (4-(5-(3-(difluoromethyl)azetidine-3-carboxamido)pyridin-2-yl)-1-methyl-1H-1,2,3-triazol-5-yl)carbamate]",1250 nM
6,"C[C@@H](OC(=O)Nc1c(-c2ccc(NC(=O)C3(C#N)CCNCC3)cn2)nnn1C)c1cc(F)cnc1F [Compound 299, (R)-1-(2,5-difluoropyridin-3-yl)ethyl (4-(5-(4-cyanopiperidine-4-carboxamido)pyridin-2-yl)-1-methyl-1H-1,2,3-triazol-5-yl)carbamate]",4990 nM
7,"C[C@@H](OC(=O)Nc1c(-c2ccc(NC(=O)C3(CN)CC3(F)F)cn2)nnn1C)c1cc(F)cnc1F (stereo partly drawn) [Compound 300, (R)-1-(2,5-difluoropyridin-3-yl)ethyl (4-(5-(1-(aminomethyl)-2,2-difluorocyclopropane-1-carboxamido)pyridin-2-yl)-1-methyl-1H-1,2,3-triazol-5-yl)carbamate]",961 nM
8,"C[C@@H](OC(=O)Nc1c(-c2ccc(NC(=O)C3(CN)CC(F)(F)C3)cn2)nnn1C)c1cc(F)cnc1F [Compound 301, (R)-1-(2,5-difluoropyridin-3-yl)ethyl (4-(5-(1-(aminomethyl)-3,3-difluorocyclobutane-1-carboxamido)pyridin-2-yl)-1-methyl-1H-1,2,3-triazol-5-yl)carbamate]",66.9 nM
9,"C[C@@H](OC(=O)Nc1c(-c2ccc(NC(=O)C3(C#N)CCNC3)cn2)nnn1C)c1cc(F)cnc1F (stereo partly drawn) [Compound 302, (R)-1-(2,5-difluoropyridin-3-yl)ethyl (4-(5-(3-cyanopyrrolidine-3-carboxamido)pyridin-2-yl)-1-methyl-1H-1,2,3-triazol-5-yl)carbamate]",669 nM
10,"C[C@@H](OC(=O)Nc1c(-c2ccc(NC(=O)C3(CN)CCC3)cn2)nnn1C)c1cc(F)cnc1F [Compound 303, (R)-1-(2,5-difluoropyridin-3-yl)ethyl (4-(5-(1-(aminomethyl)cyclobutane-1-carboxamido)pyridin-2-yl)-1-methyl-1H-1,2,3-triazol-5-yl)carbamate]",565 nM
11,"C[C@@H](OC(=O)Nc1c(-c2ccc(NC(=O)C3(CN)CC(F)(F)C3)cn2)nnn1C)c1cc(F)cnc1Cl [Compound 304, (R)-1-(2-chloro-5-fluoropyridin-3-yl)ethyl (4-(5-(1-(aminomethyl)-3,3-difluorocyclobutane-1-carboxamido)pyridin-2-yl)-1-methyl-1H-1,2,3-triazol-5-yl)carbamate]",46.4 nM
12,"C[C@@H](OC(=O)Nc1c(-c2ccc(NC(=O)C3(C#N)CN(CC(F)(F)F)C3)cn2)nnn1C)c1cc(F)cnc1F [Compound 305, (R)-1-(2,5-difluoropyridin-3-yl)ethyl (4-(5-(3-cyano-1-(2,2,2-trifluoroethyl)azetidine-3-carboxamido)pyridin-2-yl)-1-methyl-1H-1,2,3-triazol-5-yl)carbamate]",1000 nM
13,"C[C@@H](OC(=O)Nc1c(-c2ccc(NC(=O)[C@H]3C[C@H](NCC(F)(F)F)C3)cn2)nnn1C)c1cccnc1Cl [Compound 306, (R)-1-(2-chloropyridin-3-yl)ethyl (1-methyl-4-(5-((1r,3R)-3-((2,2,2-trifluoroethyl)amino)cyclobutane-1-carboxamido)pyridin-2-yl)-1H-1,2,3-triazol-5-yl)carbamate]",99.7 nM
14,"C[C@@H](OC(=O)Nc1c(-c2ccc(NC(=O)[C@H]3[C@@H]4CN(CC(F)(F)F)C[C@@H]43)cn2)nnn1C)c1cccnc1Cl [Compound 308, (R)-1-(2-chloropyridin-3-yl)ethyl (1-methyl-4-(5-((1R,5S,6r)-3-(2,2,2-trifluoroethyl)-3-azabicyclo[3.1.0]hexane-6-carboxamido)pyridin-2-yl)-1H-1,2,3-triazol-5-yl)carbamate]",337 nM
15,"C[C@@H](OC(=O)Nc1c(-c2ccc(NC(=O)C3CN(CC(F)(F)F)C3)cn2)nnn1C)c1cccnc1Cl [Compound 309, (R)-1-(2-chloropyridin-3-yl)ethyl (1-methyl-4-(5-(1-(2,2,2-trifluoroethyl)azetidine-3-carboxamido)pyridin-2-yl)-1H-1,2,3-triazol-5-yl)carbamate]",133 nM
16,"C[C@@H](OC(=O)Nc1c(-c2ccc(NC(=O)C3(N)CC(F)(F)C3)cn2)nnn1C)c1cccnc1Cl [Compound 310, (R)-1-(2-chloropyridin-3-yl)ethyl (4-(5-(1-amino-3,3-difluorocyclobutane-1-carboxamido)pyridin-2-yl)-1-methyl-1H-1,2,3-triazol-5-yl)carbamate]",454 nM
17,C[C@@H](OC(=O)Nc1c(-c2ccc(NC(=O)C3CC(NC4CC4)C3)cn2)nnn1C)c1cccnc1Cl (stereo partly drawn) [Compound 311],1530 nM
18,CC(=O)NC12CC(C(=O)Nc3ccc(-c4nnn(C)c4NC(=O)O[C@H](C)c4cccnc4Cl)nc3)(C1)C2 [Compound 312],1530 nM
19,"Cc1nc(-c2nnn(C)c2NC(=O)O[C@H](C)c2cc(F)cnc2F)ccc1NC(=O)C1(C#N)CC1 [Compound 313, (R)-1-(2,5-difluoropyridin-3-yl)ethyl (4-(5-(1-cyanocyclopropane-1-carboxamido)-6-methylpyridin-2-yl)-1-methyl-1H-1,2,3-triazol-5-yl)carbamate]",51.8 nM
20,"Cc1nc(-c2nnn(C)c2NC(=O)O[C@H](C)c2cc(F)cnc2F)ccc1NC(=O)c1cnc(C(F)(F)F)nc1 [Compound 314, (R)-1-(2,5-difluoropyridin-3-yl)ethyl (1-methyl-4-(6-methyl-5-(2-(trifluoromethyl)pyrimidine-5-carboxamido)pyridin-2-yl)-1H-1,2,3-triazol-5-yl)carbamate]",2.9 nM
21,"C[C@@H](OC(=O)Nc1c(-c2ccc(NC(=O)c3ccc(C(F)(F)F)nc3)c(F)n2)nnn1C)c1cccnc1Cl [Compound 315, (R)-1-(2-chloropyridin-3-yl)ethyl (4-(6-fluoro-5-(6-(trifluoromethyl)nicotinamido)pyridin-2-yl)-1-methyl-1H-1,2,3-triazol-5-yl)carbamate]",12.7 nM
